{"source": "patent US9980927B2", "about": "“Use of tapentadol for inhibiting and/or treating depression and anxiety” (Gruenenthal GmbH, priority 2011, dated 2018)", "test_system": "patients with inadequately managed, severe chronic low back pain with or without a neuropathic pain component", "experiment": "Hospital Anxiety and Depression Scale (HADS) depression score; open-label phase IIIb trial, tapentadol prolonged release 50-250 mg bid for up to 12 weeks", "type": "in vivo, human patients", "description": "As used herein, the “depression score” is a value determining the degree of the depression. The scale of depression scores covers the range from 0 to 21, wherein the degree of the depression is high in case of high values and low in case of low values. In a group of tested subjects, typically the mean or mediate values of depression scores are determined. The mean value is the sum of all depression scores divided by the number of subjects. The mediate value is the middle depression score in the set of determined scores. Preferably, the “depression score” is defined as in the experimental section.\nA subgroup suffering from neuropathic pain due to lumbar radiculopathy was also investigated.\nThis was a multicenter, multinational, open-label, effectiveness phase IIIb trial to evaluate effectiveness and safety of tapentadol prolonged release treatment in patients with inadequately managed, severe chronic low back pain with or without a neuropathic pain component. Patients taking WHO Step II analgesics discontinued those analgesics before starting study medication; patients taking Step I analgesics and/or centrally acting co-analgesics continued on the same dose. […] All patients received tapentadol prolonged release (50-250 mg bid) for up to 12 weeks (5-week titration period and a 7-week maintenance period). Tapentadol immediate release (IR) 50 mg (twice a day, hours apart) was permitted (combined total daily dose of tapentadol prolonged release and tapentadol IR, 500 mg/day). The primary efficacy endpoint was the change from Baseline to Week 6 (when tapentadol prolonged release doses were stable) in average pain intensity on the 11-point NRS-3 using the last observation carried forward (LOCF) for imputing missing scores. The painDETECT questionnaire was used to evaluate the likelihood of a neuropathic pain component of low back pain; patients were classified as painDETECT “negative,” “unclear,” or “positive.” The population of patients classified as painDETECT negative was limited to approximately 30% of the total population.\nIn the painDETECT positive trial population the “diagnosis of lumbar radiculopathy” was evaluated which was defined per study protocol according following criteria: • typical dermatomal pain (radiating beyond the knee towards the foot, pain evoked by stretching within distribution of the ischiadic/femoral nerve) • signs of root dysfunction: • such as sensory impairment, motor symptoms from compression of lumbar nerve root (L4, L5, S1). • and/or absent or diminished quadriceps femoris or triceps surae reflexes. • and/or quantitative sensory testing (QST) deficit and pain distribution present in the same dermatomal area.\nAll subjects completed Short Form-36 (SF-36) and EuroQol-5 Dimension (EQ-5D) questionnaires and the Hospital Anxiety and Depression Scale (HADS). The Patient Global Impression of Change (PGIC) and Clinical global impression of change (CGIC) were also used as secondary endpoints. For both tests, patients completed the statement, “since I began trial treatment, I would rate my overall condition as,” using 7 possible responses (“very much worse” to “very much improved”). Adverse events were recorded throughout the trial.\nIn the following • (i) N is the number of subjects of the specified diagnosis group, • (ii) n is the number of subjects with data available, • (iii) “Mean” is the mean score of the subjects, i.e. the sum of all scores is divided by the number of subjects, • (iv) SD is the standard deviation, • (v) “Median” is the median score of the subjects, i.e. the middle score in the set of scores, • (vi) “Range” is the range of scores of the subjects, i.e. the range defined by the lowest and the highest score of the set of scores. First, the depression scores are presented. The total number of subjects in the clinical study: N=175", "key": {"[1]": {"settings": "Visit 8, presumed neuropathic pain component N=41"}, "[2]": {"settings": "Visit 8, presumed or defined neuropathic"}, "[3]": {"settings": "Visit 8, presumed or defined neuropathic pain component N=126"}, "[4]": {"settings": "Visit 8, subjects with nociceptive pain N=49"}, "[5]": {"settings": "Visit 9, defined neuropathic pain N=85"}, "[6]": {"settings": "Visit 9, positive diagnosis of lumbar radiculopathy-neuropathic pain subset N=44"}, "[7]": {"settings": "Visit 9, presumed neuropathic pain component N=41"}, "[8]": {"settings": "Visit 9, presumed or defined neuropathic pain component N=126"}, "[9]": {"settings": "Visit 9, subjects with nociceptive pain N=49"}, "[10]": {"settings": "Visit 10, defined neuropathic pain N=85"}, "[11]": {"settings": "Visit 10, positive diagnosis of lumbar radiculopathy-neuropathic pain subset N=44"}, "[12]": {"settings": "Visit 10, presumed neuropathic pain component N=41"}, "[13]": {"settings": "Visit 10, presumed or defined neuropathic pain component N=126"}, "[14]": {"settings": "Visit 10, subjects with nociceptive pain N=49"}, "[15]": {"settings": "Visit 11, defined neuropathic pain N=85"}, "[16]": {"settings": "Visit 11, positive diagnosis of lumbar radiculopathy-neuropathic pain subset N=44"}, "[17]": {"settings": "Visit 11, presumed neuropathic pain component N=41"}, "[18]": {"settings": "Visit 11, presumed or defined neuropathic pain component N=126"}, "[19]": {"settings": "Visit 11, subjects with nociceptive pain N=49"}, "[20]": {"settings": "Visit 12, defined neuropathic pain N=85"}, "[21]": {"settings": "Visit 12, positive diagnosis of lumbar radiculopathy-neuropathic pain subset N=44"}, "[22]": {"settings": "Visit 12, presumed neuropathic pain component N=41"}, "[23]": {"settings": "Visit 12, presumed or defined neuropathic"}, "[24]": {"settings": "Visit 12, presumed or defined neuropathic pain component N=126"}, "[25]": {"settings": "Visit 12, subjects with nociceptive pain N=49"}}, "data": [{"smiles": "CC[C@@H](c1cccc(O)c1)[C@@H](C)CN(C)C", "note": "[tapentadol, (−)-(1R,2R)-3-(3-dimethylamino-1-ethyl-2-methyl-propyl)-phenol]", "values": [{"measurement": "Depression score Median", "setting": "Visit 8, positive diagnosis of lumbar radiculopathy-neuropathic pain subset N=44", "result": 6.0}, {"measurement": "Depression score Mean (SD)", "setting": "[1]", "result": "6.4 (4.24)"}, {"measurement": "Depression score Median", "setting": "[1]", "result": 6.0}, {"measurement": "Depression score change from baseline Mean (SD)", "setting": "[2]", "result": "−1.9 (3.30)"}, {"measurement": "Depression score change from baseline Median", "setting": "[2]", "result": "−1.0"}, {"measurement": "Depression score Mean (SD)", "setting": "[3]", "result": "6.4 (4.24)"}, {"measurement": "Depression score Median", "setting": "[3]", "result": 6.0}, {"measurement": "Depression score Mean (SD)", "setting": "[4]", "result": "5.5 (3.90)"}, {"measurement": "Depression score Median", "setting": "[4]", "result": 4.5}, {"measurement": "Depression score change from baseline Mean (SD)", "setting": "Visit 8, total", "result": "−1.6 (3.09)"}, {"measurement": "Depression score change from baseline Median", "setting": "Visit 8, total", "result": "−1.0"}, {"measurement": "Depression score Mean (SD)", "setting": "Visit 8, total subjects N=175", "result": "6.2 (4.16)"}, {"measurement": "Depression score Median", "setting": "Visit 8, total subjects N=175", "result": 6.0}, {"measurement": "Depression score Mean (SD)", "setting": "[5]", "result": "6.5 (5.06)"}, {"measurement": "Depression score Median", "setting": "[5]", "result": 6.0}, {"measurement": "Depression score Mean (SD)", "setting": "[6]", "result": "6.2 (4.63)"}, {"measurement": "Depression score Median", "setting": "[6]", "result": 7.5}, {"measurement": "Depression score Mean (SD)", "setting": "[7]", "result": "6.4 (4.32)"}, {"measurement": "Depression score Median", "setting": "[7]", "result": 6.0}, {"measurement": "Depression score Mean (SD)", "setting": "[8]", "result": "6.5 (4.81)"}, {"measurement": "Depression score Median", "setting": "[8]", "result": 6.0}, {"measurement": "Depression score Mean (SD)", "setting": "[9]", "result": "5.4 (3.49)"}, {"measurement": "Depression score Median", "setting": "[9]", "result": 5.0}, {"measurement": "Depression score Mean (SD)", "setting": "Visit 9, total subjects N=175", "result": "6.1 (4.48)"}, {"measurement": "Depression score Median", "setting": "Visit 9, total subjects N=175", "result": 6.0}, {"measurement": "Depression score Mean (SD)", "setting": "[10]", "result": "6.5 (5.04)"}, {"measurement": "Depression score Median", "setting": "[10]", "result": 6.0}, {"measurement": "Depression score Mean (SD)", "setting": "[11]", "result": "6.2 (4.50)"}, {"measurement": "Depression score Median", "setting": "[11]", "result": 7.0}, {"measurement": "Depression score Mean (SD)", "setting": "[12]", "result": "6.4 (5.34)"}, {"measurement": "Depression score Median", "setting": "[12]", "result": 5.0}, {"measurement": "Depression score Mean (SD)", "setting": "[13]", "result": "6.5 (5.09)"}, {"measurement": "Depression score Median", "setting": "[13]", "result": 6.0}, {"measurement": "Depression score Mean (SD)", "setting": "[14]", "result": "5.5 (3.34)"}, {"measurement": "Depression score Median", "setting": "[14]", "result": 5.5}, {"measurement": "Depression score Mean (SD)", "setting": "Visit 10, total subjects N=175", "result": "6.2 (4.66)"}, {"measurement": "Depression score Median", "setting": "Visit 10, total subjects N=175", "result": 6.0}, {"measurement": "Depression score Mean (SD)", "setting": "[15]", "result": "5.9 (4.70)"}, {"measurement": "Depression score Median", "setting": "[15]", "result": 5.5}, {"measurement": "Depression score Mean (SD)", "setting": "[16]", "result": "6.0 (4.69)"}, {"measurement": "Depression score Median", "setting": "[16]", "result": 6.5}, {"measurement": "Depression score Mean (SD)", "setting": "[17]", "result": "6.4 (5.11)"}, {"measurement": "Depression score Median", "setting": "[17]", "result": 5.0}, {"measurement": "Depression score Mean (SD)", "setting": "[18]", "result": "6.0 (4.80)"}, {"measurement": "Depression score Median", "setting": "[18]", "result": 5.0}, {"measurement": "Depression score Mean (SD)", "setting": "[19]", "result": "5.6 (4.04)"}, {"measurement": "Depression score Median", "setting": "[19]", "result": 5.0}, {"measurement": "Depression score Mean (SD)", "setting": "Visit 11, total subjects N=175", "result": "5.9 (4.59)"}, {"measurement": "Depression score Median", "setting": "Visit 11, total subjects N=175", "result": 5.0}, {"measurement": "Depression score change from baseline Mean (SD)", "setting": "Visit 12", "result": "−1.5 (3.30)"}, {"measurement": "Depression score change from baseline Median", "setting": "Visit 12", "result": "−2.0"}, {"measurement": "Depression score change from baseline Mean (SD)", "setting": "Visit 12, defined neuropathic", "result": "−2.2 (3.31)"}, {"measurement": "Depression score change from baseline Median", "setting": "Visit 12, defined neuropathic", "result": "−2.0"}, {"measurement": "Depression score Mean (SD)", "setting": "[20]", "result": "5.8 (4.76)"}, {"measurement": "Depression score Median", "setting": "[20]", "result": 5.0}, {"measurement": "Depression score change from baseline Mean (SD)", "setting": "Visit 12, lumbar radiculopathy", "result": "−2.1 (3.30)"}, {"measurement": "Depression score change from baseline Median", "setting": "Visit 12, lumbar radiculopathy", "result": "−1.0"}, {"measurement": "Depression score change from baseline Mean (SD)", "setting": "Visit 12, nociceptive", "result": "−0.5 (2.86)"}, {"measurement": "Depression score change from baseline Median", "setting": "Visit 12, nociceptive", "result": 0.0}, {"measurement": "Depression score Mean (SD)", "setting": "[21]", "result": "5.3 (4.09)"}, {"measurement": "Depression score Median", "setting": "[21]", "result": 5.0}, {"measurement": "Depression score Mean (SD)", "setting": "[22]", "result": "6.2 (4.66)"}, {"measurement": "Depression score Median", "setting": "[22]", "result": 5.0}, {"measurement": "Depression score change from baseline Mean (SD)", "setting": "[23]", "result": "−2.0 (3.30)"}, {"measurement": "Depression score change from baseline Median", "setting": "[23]", "result": "−2.0"}, {"measurement": "Depression score Mean (SD)", "setting": "[24]", "result": "5.9 (4.70)"}, {"measurement": "Depression score Median", "setting": "[24]", "result": 5.0}, {"measurement": "Depression score Mean (SD)", "setting": "[25]", "result": "4.9 (3.13)"}, {"measurement": "Depression score Median", "setting": "[25]", "result": 4.0}, {"measurement": "Depression score change from baseline Mean (SD)", "setting": "Visit 12, total", "result": "−1.6 (3.24)"}, {"measurement": "Depression score change from baseline Median", "setting": "Visit 12, total", "result": "−2.0"}, {"measurement": "Depression score Mean (SD)", "setting": "Visit 12, total subjects N=175", "result": "5.7 (4.35)"}, {"measurement": "Depression score Median", "setting": "Visit 12, total subjects N=175", "result": 5.0}, {"measurement": "efficacy against depression", "setting": "conclusion from the clinical data", "result": "significant efficacy"}, {"measurement": "depression (measured with HADS)", "setting": "patient sub-population with low back pain with a neuropathic component", "result": "significant improvement"}]}]}
